Assay results taken from article PMC12752627, “Discovery of a Potent and Selective TEAD Degrader with Durable Degradation Activity” (Advanced Science, 2025).

Test system: 867 cancer cell lines
Experiment: PRISM assay (barcoded cell line screening, 5 days);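 further: top test concentration 10 mM in eight-point dilution series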
Type: cell-based
Parameters: KG-FP-003-AUC: scale not given here
Description: The principle of the PRISM assay has been described elsewhere and was conducted as previously outlined by the PRISM team at the Broad Institute.^[ [14], [31] ^] In PRISM (MTS027) experiments, KG‐FP‐003 was tested across 867 different cancer cell lines. Cells were treated with eight concentration gradients, ranging from 4.6 nM to […], in triplicate dilutions over a period of five days. Each plate was treated with 20 µM bortezomib as a positive control and DMSO as a negative control. Three replicate experiments were performed for each compound. The resulting data were analyzed using GraphPad PRISM 9.5.

Compound `CNC(=O)c1cc2c(c(F)c1-c1c(Cl)c(F)cc3c1C[C@@](CN[C@H]1CC[C@H](C(=O)N4CCC(CC5CCN(C(=O)COc6ccc(N7CCC(=O)NC7=O)c(C)c6)CC5)CC4)CC1)(c1ccccc1)O3)[C@@H](O)[C@@H](C)C2` [KG-FP-003] has a KG-FP-003-AUC (42MGBA_CENTRAL_NERVOUS_SYSTEM ACH-000323 PR500) of 0.75, a KG-FP-003-AUC (639V_URINARY_TRACT ACH-000973 PR500) of 0.67 and a KG-FP-003-AUC (647V_URINARY_TRACT ACH-000896 PR500) of 0.66. For the same compound, the KG-FP-003-AUC (697_HAEMATOPOIETIC_AND_LYMPHOID_TISSUE ACH-000070 PR300) was 0.90, the KG-FP-003-AUC (769P_KIDNEY ACH-000411 PR500) was 0.78 and the KG-FP-003-AUC (786O_KIDNEY ACH-000649 PR500) was 0.96. For the same compound, the KG-FP-003-AUC (5637_URINARY_TRACT ACH-000905 PR500) was 0.63, the KG-FP-003-AUC (8305C_THYROID ACH-001306 PR500) was 0.73 and the KG-FP-003-AUC (8505C_THYROID ACH-001307 PR500) was 0.68. It also gave a KG-FP-003-AUC (CBAGPN_BONE ACH-001022 PR300) of 0.91, a KG-FP-003-AUC (CCFSTTG1_CENTRAL_NERVOUS_SYSTEM ACH-000329 PR500) of 1.00 and a KG-FP-003-AUC (CCK81_LARGE_INTESTINE ACH-000963 PR300) of 1.00. It also gave a KG-FP-003-AUC (CCLFPEDS0003T_SOFT_TISSUE ACH-001164 PR300) of 1.00, a KG-FP-003-AUC (CCLP1_BILIARY_TRACT ACH-001959 PR300) of 0.63 and a KG-FP-003-AUC (CCSW1_BILIARY_TRACT ACH-001960 PR300) of 0.99. The KG-FP-003-AUC (CFPAC1_PANCREAS ACH-000138 PR500) was 0.95, the KG-FP-003-AUC (CH157MN_CENTRAL_NERVOUS_SYSTEM ACH-000025 PR300) was 0.77 and the KG-FP-003-AUC (CHAGOK1_LUNG ACH-000867 PR300) was 0.78. It also gave a KG-FP-003-AUC (CHL1_SKIN ACH-001024 PR500) of 1.00, a KG-FP-003-AUC (CHLA06ATRT_SOFT_TISSUE ACH-001028 PR300) of 0.99 and a KG-FP-003-AUC (CHLA10_BONE ACH-001029 PR300) of 0.99. For the same compound, the KG-FP-003-AUC (CHLA15_AUTONOMIC_GANGLIA ACH-001300 PR300) was 0.98, the KG-FP-003-AUC (CHLA57_BONE ACH-001033 PR300) was 0.75 and the KG-FP-003-AUC (CHLA200_CENTRAL_NERVOUS_SYSTEM ACH-001293 PR300) was 0.99. For the same compound, the KG-FP-003-AUC (CJM_SKIN ACH-000458 PR500) was 0.54, the KG-FP-003-AUC (CL11_LARGE_INTESTINE ACH-000249 PR300) was 1.00 and the KG-FP-003-AUC (CL34_LARGE_INTESTINE ACH-000895 PR500) was 0.99. The KG-FP-003-AUC (CMLT1_HAEMATOPOIETIC_AND_LYMPHOID_TISSUE ACH-000920 PR300) was 0.82, the KG-FP-003-AUC (COGAR359_SOFT_TISSUE ACH-001289 PR300) was 0.62 and the KG-FP-003-AUC (COGE352_BONE ACH-001038 PR300) was 0.85. For the same compound, the KG-FP-003-AUC (COGN278_AUTONOMIC_GANGLIA ACH-001301 PR300) was 1.00, the KG-FP-003-AUC (COLO320_LARGE_INTESTINE ACH-000202 PR300) was 0.97 and the KG-FP-003-AUC (COLO668_LUNG ACH-000803 PR500) was 1.00. It also gave a KG-FP-003-AUC (COLO679_SKIN ACH-000805 PR500) of 0.97, a KG-FP-003-AUC (COLO680N_OESOPHAGUS ACH-000717 PR500) of 0.91 and a KG-FP-003-AUC (COLO741_SKIN ACH-000582 PR500) of 1.00. It also gave a KG-FP-003-AUC (COLO783_SKIN ACH-000812 PR500) of 0.85, a KG-FP-003-AUC (COLO792_SKIN ACH-000968 PR500) of 0.98 and a KG-FP-003-AUC (COLO800_SKIN ACH-000401 PR500) of 0.99. It also gave a KG-FP-003-AUC (CORL23_LUNG ACH-000662 PR500) of 0.99, a KG-FP-003-AUC (CORL88_LUNG ACH-000508 PR300) of 0.94 and a KG-FP-003-AUC (CORL105_LUNG ACH-000161 PR500) of 0.95. It also gave a KG-FP-003-AUC (CORL279_LUNG ACH-000257 PR300) of 0.80, a KG-FP-003-AUC (COV318_OVARY ACH-000256 PR300) of 0.82 and a KG-FP-003-AUC (COV362_OVARY ACH-000278 PR500) of 0.94. The KG-FP-003-AUC (COV434_OVARY ACH-000123 PR500) was 0.90, the KG-FP-003-AUC (COV644_OVARY ACH-000608 PR300) was 0.68 and the KG-FP-003-AUC (CW2_LARGE_INTESTINE ACH-000998 PR300) was 1.00. For the same compound, the KG-FP-003-AUC (CW9019_SOFT_TISSUE ACH-001050 PR300) was 0.68, the “PRISM AUC” value (Cell line: A172, 5 days) was 0.43 and the “PRISM AUC” value (Cell line: ES2, 5 days) was 0.62. For the same compound, the “PRISM AUC” value (Cell line: HOS, 5 days) was 0.53, the “PRISM AUC” value (Cell line: KLE, 5 days) was 0.53 and the KG-FP-003-AUC (DANG_PANCREAS ACH-000243 PR500) was 0.98.
